Experiments:
JJN3 = test: Percentage of viable MM cells after treatment; format: cell-based; conditions: Homo sapiens, JJN-3, read-out: percentage of viable cells
Description: (§1) Cell Treatment with EDO-S101 MM cells (MM1S, JJN3, KMS12-BM, RPMI-8226, U266, MOLP-8) were either treated with a control (0 μM EDO-S101, DMSO vehicle) or treated with EDO-S101 (0.1, 0.5, 1 or 2.5 μM in DMSO) for 48 hours, unless indicated otherwise.

MOLP-8 = test: Percentage of viable MM cells after treatment; format: cell-based; conditions: Homo sapiens, MOLP-8, read-out: percentage of viable cells
Description: as §1

MICA = MICA expression on MM patients' plasma cells ex vivo; format: cell-based, human; conditions: 6 out of the 9 patients analyzed, 48 hours
Description: (§2) For surface staining, cells were incubated with the appropriate antibodies and 7AAD (Immunostep) for 15 min in the dark. Data were acquired using a FACSCalibur cytometer (BD Biosciences) and analyzed using Infinicyt™ software (Cytognos). Specifically, the expression of CD38 or ligands for NK cell activating receptors (MICA, MICB, ULBP1-3, PVR and CD112) in MM cell lines was determined on the viable cell population (7AAD-). In primary myeloma cells, the expression of CD38 was analyzed over the viable myeloma population using the panel CD138-FITC/CD56-PE/7AAD/CD38-APC, whereas MICA/B-AF488/CD56-PE/7AAD/CD38-APC panel was used to determine MICA/B expression. Normalized median fluorescence intensity (MFI) was calculated by dividing median fluorescence obtained with the specific antibody by median fluorescence of the corresponding isotype control. MFI for each treatment was expressed as a percentage relative to the control (100%, cells cultured in media with DMSO).

MICB = MICB expression on MM patients' plasma cells ex vivo; format: cell-based, human; conditions: 3 out of 6 patients analyzed, 48 hours
Description: as §2

CD112 = test: Surface expression of NK cell activating ligands by flow cytometry; format: cell-based, human; conditions: RPMI-8226, 48 hours, DMSO = 100
Description: as §2
(§3) MM cells (JJN3, MM1.S, RPMI-8226, MOLP-8) were treated with EDO-S101 (1 and 2.5 μm) for 48 hours in accordance with the methods outlined above. After incubation, expression of several ligands for NK cell activating receptors: MICA, MICB, ULBP1, ULPB2, ULPB3, CD155 (PVR) and CD112 (Nectin-2) were measured using flow cytometry. Flow cytometry was then performed in accordance with the methods outlined above to calculate.

ULBP1 = test: as above; format: cell-based, human; conditions: MM cell lines tested; not basally expressed; data not shown
Description: as §2, §3

ULBP3 = test: as above; format: cell-based, human; conditions: RPMI-8226, 48 hours, DMSO = 100
Description: as §2, §3

[1] = system: MM cell lines (MM.1S, RPMI-8226, MOLP-8); test: NK-cell direct cytotoxicity on pre-treated MM cells; format: cell-based, human; conditions: pre-treatment 2.5 μM 48 hours, NK cells ratio 1:1, 4 hours, vs DMSO-pretreated
Description: ADCC, CDC and apoptosis via cross-linking To assess the effect of tinostamustine pre-treatment on cytotoxic mechanisms mediated by daratumumab, MM cell lines were first incubated in presence of tinostamustine (2.5 μM) or DMSO for 48 hours. Cells were then washed to remove tinostamustine or DMSO from the culture medium, and the corresponding cytotoxic assay (ADCC, CDC or apoptosis via cross-linking) was performed.
For the evaluation of ADCC, tinostamustine or DMSO pre-treated cells were cocultured with NK cells obtained from healthy donors in the presence of daratumumab (1 μg/ml) or the corresponding isotype control for 4 hours (ratio 1:1). Briefly, peripheral blood mononuclear cells (PBMCs) were isolated from healthy donor buffy coats by Lymphoprep density gradient centrifugation. […] In all three assays, the cytotoxic effect on MM cells was evaluated by flow cytometry with Annexin V/7AAD staining after treatment with daratumumab. […]
MM cells (MM1.S, RPMI-8226, MOLP-8 cells pre-treated with 0 or 2.5 μM EDO-S101 in accordance with the methods outlined above) were co-cultured with NK-cells (ratio 1:1), in the presence of daratumumab (1 μg/mL) or the corresponding isotype control, for 4 hours at 37° C. […] ADCC was then evaluated using flow cytometry in accordance with the methods outlined above, using the following panel: CD38me-FITC/AnnexinV-PE/7AAD/CD45-APC.

[2] = system: subcutaneous plasmacytoma derived from MM1.S cells; test: Second subcutaneous plasmacytoma model, CB17-SCID mice; format: in vivo; conditions: EDO-S101 30 mg/kg i.v. weekly, daratumumab 8 mg/kg i.p. weekly, 4 weeks; vehicle 34 days
Text: For the second subcutaneous human plasmacytoma model, CB17-SCID mice (The Jackson Laboratory) were used. CB17-SCID mice were randomised into groups (n=5). The design of the experiment (treatment doses and time schedule) was identical to the experiment described above with NSG mice except for the inoculation of NK cells, since CB17-SCID mice have their own functional NK cells.
For the second subcutaneous human plasmacytoma model, CB17-SCID mice (20 female mice, 5-6 weeks old; from The Jackson Laboratory) were used. The design of the experiment (treatment doses and time schedule) was identical to the one performed with NSG mice except for the inoculation of human NK cells, since CB17-SCID mice hold their own functional NK cells (Dorshkind et al., J Immunol 134:3798-3801, 1985).
In the second xenograft plasmacytoma model, CB17-SCID mice bearing a subcutaneous plasmacytoma derived from MM1.S cells were randomized to receive vehicle, daratumumab, EDO-S101 or the double combination. Mice were treated with EDO-S101 on Mondays and daratumumab was administered on Tuesdays. […] Furthermore, statistical differences in survival were also found between the combination vs vehicle (58 days±2.739 vs 34 days±2.191 days, respectively; p=0.003).

Cn1c(CCCCCCC(=O)NO)nc2cc(N(CCCl)CCCl)ccc21 [EDO-S101, 7-(5-(bis(2-chloroethyl)amino)-1-methyl-1H-benzo[d]imidazol-2-yl)-N-hydroxyheptanamide]
viability at 2.5 µM (JJN3): 55.5%
viability at 2.5 µM (MOLP-8): 25.6%
expression of MICA in tinostamustine-treated vs DMSO-treated patient cells (MICA): at least twice
increase of MICB expression after treatment, patient cells (MICB): more than 1.5 fold
Normalized MFI CD112 (CD112; EDO-S101 1 μM): 116.6 ± 13.2%
Normalized MFI CD112 (CD112; EDO-S101 2.5 μM): 142.8 ± 11.5%
ULBP1 expression (ULBP1): did not change
Normalized MFI ULBP3 (ULBP3; EDO-S101 1 μM): 111.7 ± 14.8%
Normalized MFI ULBP3 (ULBP3; EDO-S101 2.5 μM): 129.6 ± 20.2%
percentage of dead myeloma cells, NK-cell direct cytotoxicity (no daratumumab) [1]: significantly enhances
percentage of dead myeloma cells, NK-cell direct cytotoxicity (no daratumumab) ([1]; listed as tinostamustine): significantly increased
overall median survival [2]: 51 days
